From US12606795B2 (Thankcome Biological Science and Technology (SuZhou) Co., …, priority 2023, dated 2026)
≈ marks a conversion by molar mass, not a printed value.

How the values were obtained:
AKK PROBIO = experiment: Drug sensitivity, agar dilution method (CLSI); assay type: cell-based, Akkermansia muciniphila; settings: for MIC: Akkermansia muciniphila, read-out: Test strain AKK PROBIO MIC, agar dilution method; for Test strain AKK PROBIO Judgment result: judged by CLSI S/I/R criterion of Table 6
Procedure: Referring to the Clinical and Laboratory Standards Institute (CLSI) method [CLSI. Performance Standards for Antimicrobial Susceptibility Testing; 26th ed. CLSI supplement M100S.
The sensitivity of AKK PROBIO to ampicillin, ceftriaxone, cefotaxime, meropenem, tetracycline, moxifloxacin, and chloramphenicol was determined using an agar dilution method recommended by CLSI. The quality-control strain B. fragilis ATCC 25285 was determined using a micro broth dilution method recommended by CLSI.

[1] = tested on: Bacteroides fragilis ATCC 25285; experiment: Drug sensitivity of quality-control strain, micro broth dilution method (CLSI); assay type: cell-based; settings: ATCC25285
Procedure: Bacteroides fragilis ATCC 25285 was selected as a quality-control strain. The sensitivity of […] to ampicillin, ceftriaxone, cefotaxime, meropenem, tetracycline, moxifloxacin, and chloramphenicol was determined using an agar dilution method recommended by CLSI. The quality-control strain B. fragilis ATCC 25285 was determined using a micro broth dilution method recommended by CLSI.

[2] = tested on: gouty arthritis mouse model; experiment: Gouty arthritis mouse model (sodium urate); assay type: in vivo, BALB/c mice; settings: glucosamine sulfate 195 mg/kg. bw intragastric
Procedure: Mice were randomly divided into 5 groups: a normal group, a model group, a glucosamine sulfate (positive control) group, an Akk low-concentration experimental (Akk-L) group, and an Akk high-concentration experimental (Akk-H) group, with 10 mice in each group. The mice in the normal group and the mice in the model group were intragastrically administered with distilled water at a dosage of 0.1 mL/10 g. bw per day. The mice in the glucosamine sulfate group were intragastrically administered with glucosamine sulfate at a dosage of 195 mg/kg. bw. The mice in the Akk-L group and the mice in the Akk-H group were intragastrically administered with Akk experimental bacteria at a dosage of 10^8 CFU/kg. bw and 10^9 CFU/kg. bw, respectively, for 7 consecutive days. Then, all experimental mice were anesthetized with isoflurane, and then 50 μL of PBS solution was injected into the tibiotarsal joint (ankle joint) of the right paw of the mouse in the normal group. 50 mg of sodium urate was added to 1 mL of PBS buffer to prepare a suspension. 50 μL of suspension was injected into the tibiotarsal joints (ankle joint) of the right paws of the rest of the mice except the mice in the […] to induce gouty arthritis. After the mice woke up, they were intragastrically administrated with a corresponding sample for 7 d still at the dosage of the sample intragastrically administrated in the previous 7 days.
0.1 g of mouse ankle joint tissue was weighed and added into […] containing 0.9 mL of saline and mixing was performed. Subsequently, mixed tissue samples were centrifuged at a speed of 4000 rpm for 10 min to obtain liquid supernatant. Next, related indicators in the liquid supernatant of a tissue homogenate was determined using assay kits for MPO, SOD, GSH, and MDA.
A taken-out whole blood sample of the mouse was centrifuged at 4° C. at 4000 rpm for 10 min to obtain supernatant serum. Serum-related inflammatory indicators were determined using the ELISA kit for IL-6, IL-10, IL-1β, and TNF-α.

S. typhimurium TA98 = settings: TA98 −S9
Procedure: (§1) Bacterial strains used were Salmonella typhimurium TA97a (National Center for Type Culture Collection NTCC, 506391), S. typhimurium TA98 (NTCC, 506392), S. typhimurium TA100 (NTCC, 506395), S. typhimurium TA1535 (NTCC, 506396), and Escherichia coli WP2 uvrA (CHI Scientific, Co., Ltd., product number: 6-1705). To prepare a drug delivery formulation, distilled water was used as a carrier to prepare a suspension (100 mg/mL) for a test item. […] Therefore, bacteria in samples for the test item were removed by a mechanical means. In the process of mixing the formulation, any soluble components for the test item was dissolved in the carrier, and then, residual bacteria were removed by centrifugation (4° C.; 8000 rpm; 10 min). After centrifugation, liquid supernatant was removed and sterile filtration was performed with a 0.22 μm filter.
(§2) In the confirmatory mutation research, detection was performed at 15.81, 50, 158.1, 500, 1581, and 5000 μg/plate. The maximum concentration was recommended by current regulations and guidelines. […] The survival rate of test bacterial cells was checked through plate experiments in each test. If there is a dosage-related increase in the number of revertants, it is considered that the test item has mutagenicity, and/or a reproducible biology-related positive reaction targeting at least one dosage group occurs in at least one strain with or without metabolic activation.

[3] = tested on: Salmonella typhimurium TA97a; settings: TA97a −S9
Procedure: as §1, §2

[4] = tested on: AOM/DSS-induced colorectal carcinoma mice; experiment: AOM/DSS-induced colorectal carcinoma mice; assay type: in vivo, C57BL/6 mice
Procedure: 6-week-old SPF male C57BL/6 mice, purchased from the Chongqing Lepitt Biotechnology Co., Ltd. The mice were raised in a standardized laboratory with room temperature of 25° C.±2° C., relative humidity of 50%±5%, and 12 h of light/12 h of darkness. […] In experiments, mice were given free feeding and water. On the first day of experimental molding, the mice in the model group, the aspirin group, and the AKKP group were injected intraperitoneally with AOM at a dosage of 10 mg/kg, and were fed with 2.5% DSS aqueous solution at weeks 2, 5, and 8. The mice in the normal group and model group were intragastrically administrated with sterile saline; the mice in the aspirin group were intragastrically administrated with an aspirin solution at 67 mg/kg, and the mice in the AKKPL group and the AKKPH group were intragastrically administrated at dosages of 1×10^8 CFU/kg and 1×10^9 CFU/kg, respectively, for 10 consecutive weeks. In the experiments, diet, activity, vigor and hair conditions, and fecal properties of the mice in each group were observed. Each mouse was weighed per week and the body weights were recorded. After the experiments, blood was collected from eyeballs and the mice were sacrificed by removing their vertebrae. The mice were dissected to take out large intestine tissue, spleen tissue, liver tissue, and the kidney tissue for later testing.
After the mice were dissected, the large intestine tissue, the spleen tissue, the liver tissue, and the kidney tissue were taken out and weighed. An organ Index was calculated using a formula, while the colorectum length of the mouse was measured and the colorectal tumorigenesis number of the mouse was recorded. Organ index=organ weight (mg)/mouse body weight (g).
After being fixed in a tissue fixative for 24 h, the rectum of the mouse was transferred into 95% ethanol for dehydration, and then the dehydrated rectum was placed in xylene to replace alcohol in the tissue to make the rectum tissue transparent. Then, the treated rectum was embedded with paraffin. The embedded rectum was sectioned by a microtome, and then a tissue section was stained with H&E and fixed, obtaining a pathologic tissue section, with a thickness of 2 to 3 μm, of the rectum of the mouse, and the pathologic tissue section was observed under the upright microscope.
Whole blood was collected from the eyeballs, and centrifuged at 4000 r/min and 4° C. for 10 min to separate supernatant serum. According to the instruction of the ELISA kit, the levels of IL-1β, IL-6, IFN-γ, iNOS and NF-κB in the serum of the mouse were determined.
About 50 mg colon tissue was taken and cleaned with saline, and the cleaned colon tissue was placed in a homogenization tube containing 6 zirconia beads, and 500 μL TRIzol™ reagent was added to extract RNA in the tissue. The purity and concentration of RNA were determined using the micro-spectrophotometer. […] Then, after cDNA was generated by reverse transcription, a reaction system containing 1 μL cDNA was prepared. Other reagents include 10 μL qPCR SYBR Green Master Mix, […] sterile distilled water, 1 μL forward primer and 1 μL reverse primer. qRT-PCR amplification reaction conditions: 95° C., 10 s, 60° C., 30 s, 40 cycles; 95° C., 15 s, 60° C., 60 s, 95° C., 15 s. Taking Eef2 as an internal reference gene, the mRNA relative expression of each target gene was calculated according to formula 2^−ΔΔCt.

[5] = qRT-PCR, aspirin 67 mg/kg or AKKPH 1×10^9 CFU/kg, vs model group, P<0.05
[6] = qRT-PCR, vs model group, P<0.05

## CC1(C)S[C@@H]2[C@H](NC(=O)[C@H](N)c3ccccc3)C(=O)N2[C@H]1C(=O)O [Ampicillin, ampicillin]
AKK PROBIO
  MIC: < 0.25 µg/mL
  Test strain AKK PROBIO Judgment result: Sensitive
AKK PROBIO; listed as ampicillin
  Test strain AKK PROBIO Judgment result: sensitive
[1]
  MIC: 64 µg/mL (≈ 183 µM)

## CO/N=C(\C(=O)N[C@@H]1C(=O)N2C(C(=O)O)=C(COC(C)=O)CS[C@H]12)c1csc(N)n1 [Cefotaxime, cefotaxime]
AKK PROBIO
  MIC: 16 µg/mL (≈ 35.1 µM)
  Test strain AKK PROBIO Judgment result: Sensitive
AKK PROBIO; listed as cefotaxime
  Test strain AKK PROBIO Judgment result: sensitive
[1]
  MIC: 32 µg/mL (≈ 70.3 µM)

## CO/N=C(\C(=O)N[C@@H]1C(=O)N2C(C(=O)O)=C(CSc3nc(=O)c(=O)[nH]n3C)CS[C@H]12)c1csc(N)n1 [Ceftriaxone, ceftriaxone]
AKK PROBIO
  MIC: 8 µg/mL (≈ 14.4 µM)
  Test strain AKK PROBIO Judgment result: Sensitive
AKK PROBIO; listed as ceftriaxone
  Test strain AKK PROBIO Judgment result: sensitive
[1]
  MIC: 128 µg/mL (≈ 231 µM)

## O=C(N[C@H](CO)[C@H](O)c1ccc([N+](=O)[O-])cc1)C(Cl)Cl [Chloramphenicol, chloramphenicol]
AKK PROBIO
  MIC: 4 µg/mL (≈ 12.4 µM)
  Test strain AKK PROBIO Judgment result: Sensitive
AKK PROBIO; listed as chloramphenicol
  Test strain AKK PROBIO Judgment result: sensitive
[1]
  MIC: 8 µg/mL (≈ 24.8 µM)

## N[C@H]1C(O)O[C@H](CO)[C@@H](O)[C@@H]1O.O=S(=O)(O)O (stereo partly shown) [Glucosamine sulfate, glucosamine sulfate, reference compound]
[2]; model group 1.07, normal 6.07
  SOD in mouse ankle joint tissue: 2.50 ± 0.40 U/mg
[2]; model group 2.49, normal 0.38
  MPO in mouse ankle joint tissue: 1.82 ± 0.17 U/g
[2]; model group 18.06, normal 47.05
  GSH in mouse ankle joint tissue: 31.14 ± 1.66 mg/g
[2]; model group 24.97, normal 12.66
  IL-1β in serum of mice: 21.15 ± 1.22 ng/mL
[2]; model group 26.69, normal 5.74
  MDA in mouse ankle joint tissue: 20.31 ± 1.52 nmol/mg
[2]; model group 36.03, normal 27.20
  IL-10 in serum of mice: 32.84 ± 1.94 ng/mL
[2]; model group 90.05, normal 52.97
  IL-6 in serum of mice: 66.85 ± 4.90 ng/mL
[2]; model group 249.41, normal 117.58
  TNF-α in serum of mice: 204.43 ± 15.32 ng/mL

## C[C@@H](O)[C@H]1C(=O)N2C(C(=O)O)=C(S[C@@H]3CN[C@H](C(=O)N(C)C)C3)[C@H](C)[C@H]12 [Meropenem, meropenem]
AKK PROBIO
  MIC: 0.125 µg/mL (≈ 0.326 µM)
  Test strain AKK PROBIO Judgment result: Sensitive
AKK PROBIO; listed as meropenem
  Test strain AKK PROBIO Judgment result: sensitive
[1]
  MIC: 0.25 µg/mL (≈ 0.652 µM)

## CN(C)c1ccc(N=NS(=O)(=O)[O-])cc1.[Na+] [Positive control 1, fenaminosulf]
S. typhimurium TA98
  Number of revertant mutants per plate (mean ± standard deviation): 1525.00
[3]
  Number of revertant mutants per plate (mean ± standard deviation): 1169.4

## CN(C)[C@@H]1C(O)=C(C(N)=O)C(=O)[C@@]2(O)C(O)=C3C(=O)c4c(O)cccc4[C@@](C)(O)[C@H]3C[C@@H]12 [Tetracy cline, tetracycline]
AKK PROBIO
  MIC: 2 µg/mL (≈ 4.5 µM)
[1]
  MIC: 0.5 µg/mL (≈ 1.13 µM)

## CC(=O)Oc1ccccc1C(=O)O [aspirin, reference compound]
[4]; AOM/DSS mice, intragastric 10 weeks, aspirin 67 mg/kg, AKKP 1×10^8 and 1×10^9 CFU/kg
  body weight loss: alleviate the body weight loss in the mice to a certain extent
[4]; ELISA, vs model group
  content of IL-6 in serum: reduced
[4]; ELISA, vs model group, P<0.05
  content of IFN-γ in serum: reduced
  content of IL-1β in serum: lower than that in the model group
  content of NF-κB in serum: reduced
  content of iNOS in serum: reduced
[4]; aspirin 67 mg/kg intragastric 10 weeks, model group 4.34±0.35, normal 2.81±0.34
  colorectum weight/length (ratio): 3.17±0.50
[4]; aspirin, AKKPL and AKKPH groups
  pathological morphology of rectum tissue (H&E): no obvious erosion found in the rectal mucosa
[4]; between the five groups, P>0.05
  kidney index / renal tissue: no significant difference
[4]; [5]
  mRNA relative expression of IκBβ in colon tissue: significantly reduced
  mRNA relative expression of p50 in colon tissue: significantly reduced
[4]; [6]
  mRNA relative expression of Bid in colon tissue: significantly increased
  mRNA relative expression of Bim in colon tissue: significantly increased
  mRNA relative expression of caspase-9 in colon tissue: significantly increased
  mRNA relative expression of p52 in colon tissue: significantly reduced
  mRNA relative expression of p65 in colon tissue: significantly reduced
[4]; vs model group, P<0.05
  colorectal tumorigenesis number: significantly smaller
  liver weight (liver index): reduced
  spleen weight (spleen index): reduced
[4]; vs model group, P<0.05, aspirin 67 mg/kg, AKKP 1×10^8 and 1×10^9 CFU/kg, 10 weeks
  colorectum length: relatively long
